Measured values taken from patent US20180264146A1, “NOVEL IMAGING COMPOUNDS” (AC IMMUNE S.A., priority 2015, published 2018).

Columns and labels:
[1] = target: Tau in human Alzheimer disease brain homogenate (stage Braack V), [18F]-labeled Tau-Reference binder (Homo sapiens, UniProt P10636); experiment: Tau radio-binding competition assay; details: competition with [18F]-labeled Tau-Reference binder, human AD brain homogenate
Method: Tau Radio-Binding Competition Assay
20 μg of human Alzheimer disease brain homogenate (stage Braack V) was incubated with a dilution series of each test compound (1000 to 0.06 nM) in the presence of 800 Bq of [^18F]-labeled Tau-Reference binder. The samples were shaken at 110 rpm for 45 min at 37° C. Samples were then filtered through GF/B 96 well filter plates and two times washed with 300 μl assay buffer (PBS containing 0.1% BSA and 2% DMSO). Thereafter, filter plates were sealed and a Fuji Film Imaging Plate (BAS-SR2025) were placed on top. The imaging plate was analyzed the next day using a Fuji Film BAS-5000. Non-specific signal was determined with samples containing [^18F]-labeled Tau-Reference binder in the presence of assay buffer missing brain substrate and competitor. Specific binding was calculated by subtracting the non-specific signal from the measured sample signal. The unblocked [^18F]-labeled Tau-Reference binder signal was defined as total binding. IC50 values were calculated by Prism V6 (GraphPad) using total binding as 100%.

MAO-A human-recombinant = target: T1, MAO-A human-recombinant (Homo sapiens, UniProt P21397); experiment: Monoamine oxidase A (MAO-A) assay (MAO-Glo); format: biochemical; details: read-out: MAO A binding
T1 construct: purchased Sigma-Aldrich M7316
T1 sequence (P21397 1-527): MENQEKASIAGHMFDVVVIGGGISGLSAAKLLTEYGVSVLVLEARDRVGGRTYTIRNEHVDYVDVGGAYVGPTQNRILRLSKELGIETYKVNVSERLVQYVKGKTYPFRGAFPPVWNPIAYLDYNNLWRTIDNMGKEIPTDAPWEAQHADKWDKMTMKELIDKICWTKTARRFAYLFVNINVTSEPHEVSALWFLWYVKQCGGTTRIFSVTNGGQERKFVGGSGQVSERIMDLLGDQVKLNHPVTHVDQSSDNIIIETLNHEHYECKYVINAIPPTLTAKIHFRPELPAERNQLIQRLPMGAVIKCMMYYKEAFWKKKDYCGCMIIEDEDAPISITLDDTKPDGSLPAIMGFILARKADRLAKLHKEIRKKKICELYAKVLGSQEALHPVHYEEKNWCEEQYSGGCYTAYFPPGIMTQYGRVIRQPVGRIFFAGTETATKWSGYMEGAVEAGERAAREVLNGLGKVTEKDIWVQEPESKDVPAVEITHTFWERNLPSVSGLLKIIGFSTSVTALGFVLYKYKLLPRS
Method: Monoamine Oxidase A (MAO-A) Assay
Compounds were tested for their capacity to modulate MAO-A activity within the MAO-Glo™ Assay (Promega, Cat.# V1402). In each well of a 96-well plate, 12.5 μl of 4×MAO Substrate solution (end-concentration in assay: 40 μM) were mixed with 12.5 μl of a 4× solution of the corresponding test compound (end-concentrations ranged from 10 μM to 1.37 nM). In the absence of a test compound (i.e. to gauge the total MAO-A activity), the corresponding volume of MAO Reaction Buffer (100 mM HEPES (pH 7.5), 5% glycerol) was added. To initiate the MAO reaction, 25 μl of 2×MAO-A enzyme solution (MAO-A human-recombinant, Sigma-Aldrich, Cat.# M7316; 1 μg MAO-A enzyme/25 μl MAO Reaction Buffer) were added per well and mixed briefly. For negative control reactions, 25 μl of MAO Reaction Buffer were added. Thereafter the plate was incubated at room temperature for 1 hour, following which, 50 μl of reconstituted Luciferin Detection Reagent were added per well and mixed briefly. The plate was then incubated at room temperature for 20 minutes to generate and stabilize the luminescent signal. The luminescent signal was subsequently measured and recorded on the TopCountNXT™ luminescence counter (PerkinElmer). Data were analyzed and graphs were prepared using the Graphpad Prism 6 software.

MAO-B human-recombinant = target: T2, MAO-B human-recombinant (Homo sapiens, UniProt P27338); experiment: MAO-B assay (MAO-Glo); format: biochemical; details: read-out: MAO B binding
T2 construct: purchased Sigma-Aldrich M7441
T2 sequence (P27338 1-520): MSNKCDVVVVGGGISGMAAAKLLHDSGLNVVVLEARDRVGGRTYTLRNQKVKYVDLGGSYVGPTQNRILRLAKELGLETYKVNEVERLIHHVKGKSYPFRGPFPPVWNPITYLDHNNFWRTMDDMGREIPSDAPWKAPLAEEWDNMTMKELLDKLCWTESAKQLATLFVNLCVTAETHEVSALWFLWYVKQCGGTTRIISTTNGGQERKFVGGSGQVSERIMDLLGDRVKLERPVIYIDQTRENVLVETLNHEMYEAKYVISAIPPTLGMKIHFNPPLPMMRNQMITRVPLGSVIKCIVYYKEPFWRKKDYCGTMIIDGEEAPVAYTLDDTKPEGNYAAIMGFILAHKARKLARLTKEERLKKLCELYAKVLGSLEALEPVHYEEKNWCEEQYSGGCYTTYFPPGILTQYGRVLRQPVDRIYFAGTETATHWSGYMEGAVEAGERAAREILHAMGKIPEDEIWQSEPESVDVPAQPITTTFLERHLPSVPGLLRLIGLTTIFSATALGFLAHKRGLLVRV
Method: Compounds were tested for their capacity to modulate MAO-B activity within the MAO-Glo™ Assay (Promega, Cat.# V1402). In each well of a 96-well plate, 12.5 μl of 4×MAO Substrate solution (end-concentration in assay: 4 μM) were mixed with 12.5 μl of a 4× solution of the corresponding test compound (end-concentrations ranged from 10 μM to 1.37 nM). In the absence of a test compound (i.e. to gauge the total MAO-B activity), the corresponding volume of MAO-B Reaction Buffer (100 mM HEPES (pH 7.5), 5% glycerol, 10% dimethyl sulphoxide) was added. To initiate the MAO reaction, 25 μl of 2×MAO-B enzyme solution (MAO-B human—recombinant, Sigma-Aldrich, Cat.# M7441; 1 μg MAO-B enzyme/25 μl MAO-B Reaction Buffer) were added per well and mixed briefly. For negative control reactions, 25 μl of MAO-B Reaction Buffer were added. Thereafter the plate was incubated at room temperature for 1 hour, following which, 50 μl of reconstituted Luciferin Detection Reagent were added per well and mixed briefly. The plate was then incubated at room temperature for 20 minutes to generate and stabilize the luminescent signal. The luminescent signal was subsequently measured and recorded on the TopCountNXT™ luminescence counter (PerkinElmer). Data were analyzed and graphs were prepared using the Graphpad Prism 6 software.

Chain of Tau in human Alzheimer disease brain homogenate (stage Braack V), [18F]-labeled Tau-Reference binder (P10636 623-695 limits assumed): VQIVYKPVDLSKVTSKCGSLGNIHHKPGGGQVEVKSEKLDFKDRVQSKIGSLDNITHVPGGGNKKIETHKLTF

Compound	IC50 [1]	IC50 (MAO-A human-recombinant)	IC50 (MAO-B human-recombinant)
FCCOC1CCN(c2ccc3c(n2)[nH]c2ccncc23)CC1 [Example 2]	4 nM	> 6000 nM	> 1000 nM
OC(CF)COC1CCN(c2ccc3c(n2)[nH]c2ccncc23)CC1 (stereo not shown) [Example 7]	3 nM	–	> 1000 nM
F[C@H]1CCCN(c2ccc3c(n2)[nH]c2ccncc23)C1 [Example 26]	16 nM	–	–
FCC(F)COC1CCN(c2ccc3c(n2)[nH]c2ccncc23)CC1 (stereo not shown) [Example 24]	8 nM	–	–
FC1CC2(C1)CN(c1ccc3c(n1)[nH]c1ccncc13)C2 [Example 12]	13 nM	570 nM	> 1000 nM
FCCOCCOC1CCN(c2ccc3c(n2)[nH]c2ccncc23)CC1 [Example 5]	6 nM	> 2000 nM	> 1000 nM
FCCOC1CC2(C1)CN(c1ccc3c(n1)[nH]c1ccncc13)C2 [Example 13]	16 nM	> 2000 nM	> 1000 nM
[2H]C([2H])(F)CCOC1CCN(c2ccc3c(n2)[nH]c2ccncc23)CC1 [Example 19]	2.3 nM	–	–
FC1CC2(CCN(c3ccc4c(n3)[nH]c3ccncc34)CC2)C1 [Example 28]	5.2 nM	–	–
FC1CCN(c2ccc3c(n2)[nH]c2ccncc23)CC1 [Example 27]	3 nM	–	–
OC1(CF)CCN(c2ccc3c(n2)[nH]c2ccncc23)CC1 [Example 8]	40 nM	940 nM	> 1000 nM
F[C@@H]1CCCN(c2ccc3c(n2)[nH]c2ccncc23)C1 [Example 25]	5.4 nM	1020 nM	–
F[C@@H]1CCN(c2ccc3c(n2)[nH]c2ccncc23)C1 [Example 6]	7 nM	940 nM	> 1000 nM
FCCOCCC1CCN(c2ccc3c(n2)[nH]c2ccncc23)CC1 [Example 21]	1.5 nM	–	–
F[C@H]1CCN(c2ccc3c(n2)[nH]c2ccncc23)C1 [Example 1]	6 nM	> 1000 nM	> 1000 nM
